Test results taken from the NIST ThermoML archive (doi:10.1016/j.jct.2014.02.016).
Numbers after ± are expanded uncertainties.

Legend:
[1] = heat capacity at constant pressure per volume; xn = mol fraction of the nth substance listed; conditions: 100 kPa, Liquid, DSC Calorimetry, x1 = 0.284
[2] = refractive index (other wavelength) (dimensionless); xn = mol fraction of the nth substance listed; conditions: 100 kPa, Liquid, Wavelength=632.8 nm, Angle minimization by sell rotation

CCCCCCCCCCC [undecane] + COC(=O)OC
[1]
Conditions | heat capacity [J/K/m3]
293.3 K | 2050000 ± 110000
293.4 K | 2009000 ± 110000
293.5 K | 1982000 ± 110000
293.6 K | 1953000 ± 100000
293.8 K | 1939000 ± 100000
294 K | 1925000 ± 100000
294.5 K | 1897000 ± 100000
296 K | 1878000 ± 100000
297 K | 1848000 ± 99000
298 K | 1846000 ± 99000
299 K | 1832000 ± 98000
300 K | 1824000 ± 97000
301 K | 1822000 ± 97000
302 K | 1818000 ± 97000
303 K | 1818000 ± 97000
304 K | 1814000 ± 97000
305 K | 1810000 ± 97000
306 K | 1806000 ± 96000
307 K | 1805000 ± 96000
308 K | 1803000 ± 96000
309 K | 1801000 ± 96000
310 K | 1800000 ± 96000
311 K | 1797000 ± 96000
312 K | 1796000 ± 96000
313 K | 1795000 ± 96000
314 K | 1793000 ± 96000
315 K | 1792000 ± 96000
316 K | 1790000 ± 96000
317 K | 1789000 ± 96000
318 K | 1788000 ± 95000
319 K | 1787000 ± 95000
320.01 K | 1787000 ± 95000
321 K | 1786000 ± 95000
322 K | 1785000 ± 95000
323 K | 1784000 ± 95000
324.01 K | 1783000 ± 95000
325 K | 1782000 ± 95000
326 K | 1782000 ± 95000
327 K | 1780000 ± 95000
328.01 K | 1780000 ± 95000
329 K | 1780000 ± 95000
330 K | 1779000 ± 95000
331 K | 1778000 ± 95000
332 K | 1778000 ± 95000
333 K | 1777000 ± 95000

[2]
Conditions | refractive index
283.01 K, x1 = 0.087 | 1.3791 ± 0.0003
283.01 K, x1 = 0.62 | 1.4074 ± 0.0003
284.23 K, x1 = 0.094 | 1.3791 ± 0.0003
284.23 K, x1 = 0.602 | 1.4062 ± 0.0003
285.47 K, x1 = 0.102 | 1.3791 ± 0.0003
285.47 K, x1 = 0.58 | 1.4048 ± 0.0003
286.63 K, x1 = 0.11 | 1.3791 ± 0.0003
286.63 K, x1 = 0.56 | 1.4035 ± 0.0003
287.73 K, x1 = 0.118 | 1.3792 ± 0.0003
287.73 K, x1 = 0.539 | 1.4022 ± 0.0003
288.79 K, x1 = 0.129 | 1.3795 ± 0.0003
288.79 K, x1 = 0.515 | 1.4008 ± 0.0003
289.51 K, x1 = 0.137 | 1.3797 ± 0.0003
289.51 K, x1 = 0.496 | 1.3997 ± 0.0003
290.19 K, x1 = 0.147 | 1.3801 ± 0.0003
290.19 K, x1 = 0.475 | 1.3985 ± 0.0003
290.77 K, x1 = 0.157 | 1.3805 ± 0.0003
290.77 K, x1 = 0.46 | 1.3976 ± 0.0003
291.19 K, x1 = 0.165 | 1.3809 ± 0.0003
291.19 K, x1 = 0.442 | 1.3966 ± 0.0003
291.49 K, x1 = 0.173 | 1.3813 ± 0.0003
291.49 K, x1 = 0.431 | 1.396 ± 0.0003
291.71 K, x1 = 0.179 | 1.3816 ± 0.0003
291.71 K, x1 = 0.418 | 1.3953 ± 0.0003
291.9 K, x1 = 0.186 | 1.382 ± 0.0003
291.9 K, x1 = 0.409 | 1.3948 ± 0.0003
292.05 K, x1 = 0.193 | 1.3824 ± 0.0003
292.05 K, x1 = 0.398 | 1.3942 ± 0.0003
292.17 K, x1 = 0.198 | 1.3827 ± 0.0003
292.17 K, x1 = 0.391 | 1.3938 ± 0.0003
292.25 K, x1 = 0.202 | 1.3829 ± 0.0003
292.25 K, x1 = 0.383 | 1.3934 ± 0.0003
292.33 K, x1 = 0.207 | 1.3832 ± 0.0003
292.33 K, x1 = 0.376 | 1.393 ± 0.0003
292.39 K, x1 = 0.212 | 1.3835 ± 0.0003
292.39 K, x1 = 0.371 | 1.3927 ± 0.0003
292.44 K, x1 = 0.217 | 1.3838 ± 0.0003
292.44 K, x1 = 0.365 | 1.3924 ± 0.0003
292.49 K, x1 = 0.22 | 1.384 ± 0.0003
292.49 K, x1 = 0.36 | 1.3921 ± 0.0003
292.52 K, x1 = 0.225 | 1.3843 ± 0.0003
292.52 K, x1 = 0.352 | 1.3917 ± 0.0003
292.56 K, x1 = 0.228 | 1.3845 ± 0.0003
292.56 K, x1 = 0.349 | 1.3915 ± 0.0003
292.59 K, x1 = 0.235 | 1.3849 ± 0.0003
292.59 K, x1 = 0.341 | 1.3911 ± 0.0003
292.62 K, x1 = 0.238 | 1.3851 ± 0.0003
292.62 K, x1 = 0.336 | 1.3908 ± 0.0003
292.64 K, x1 = 0.243 | 1.3854 ± 0.0003
292.64 K, x1 = 0.331 | 1.3905 ± 0.0003
292.65 K, x1 = 0.246 | 1.3856 ± 0.0003
292.65 K, x1 = 0.327 | 1.3903 ± 0.0003
292.66 K, x1 = 0.251 | 1.3859 ± 0.0003
292.66 K, x1 = 0.322 | 1.39 ± 0.0003
292.67 K, x1 = 0.255 | 1.3861 ± 0.0003
292.67 K, x1 = 0.258 | 1.3863 ± 0.0003
292.67 K, x1 = 0.314 | 1.3896 ± 0.0003
292.67 K, x1 = 0.318 | 1.3898 ± 0.0003
292.68 K, x1 = 0.261 | 1.3865 ± 0.0003
292.68 K, x1 = 0.263 | 1.3866 ± 0.0003
292.68 K, x1 = 0.266 | 1.3868 ± 0.0003
292.68 K, x1 = 0.304 | 1.389 ± 0.0003
292.68 K, x1 = 0.307 | 1.3892 ± 0.0003
292.68 K, x1 = 0.311 | 1.3894 ± 0.0003
303.3 K, x1 = 0.102 | 1.3708 ± 0.0003
303.3 K, x1 = 0.2 | 1.3776 ± 0.0003
303.3 K, x1 = 0.299 | 1.3835 ± 0.0003
303.3 K, x1 = 0.388 | 1.3891 ± 0.0003
303.3 K, x1 = 0.5 | 1.3932 ± 0.0003
303.3 K, x1 = 0.586 | 1.3967 ± 0.0003
303.3 K, x1 = 0.701 | 1.4014 ± 0.0003
303.3 K, x1 = 0.793 | 1.4041 ± 0.0003
303.3 K, x1 = 0.905 | 1.4085 ± 0.0003
